Reference: the supplement of paper PMC10307832

Assays:
Experiment in all cases: relative viability (nuclei count vs DMSO), 5 days (fraction); higher = more cells survive
[1] = compound: COc1cc2c(Oc3ccc4[nH]c(C)cc4c3F)ncnc2cc1OCCCN1CCCC1 [Cediranib] + NC(=O)Nc1cc(-c2cccc(F)c2)sc1C(=O)N[C@H]1CCCNC1 [AZD7762] (partner 0.2 µM)
Method in brief: (§1)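 Relative viability was taken as the ratio of nuclei in treated wells to nuclei in vehicle wells. Lung cancer cell lines in 1536-well plates received compounds by pin tool one day after seeding, either one drug alone or a fixed anchor-drug dose plus five library-drug doses (not always all listed) in √10 steps. Nuclei were counted on 4× images after 5 days of treatment, and values are medians of duplicate plates.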

[2] = compound: Nc1ncn([C@H]2C[C@H](O)[C@@H](CO)O2)c(=O)n1 [Decitabine] + CS(=O)(=O)N1CCN(Cc2cc3nc(-c4cccc5[nH]ncc45)nc(N4CCOCC4)c3s2)CC1 [Pictilisib] (partner 1 µM)
Method in brief: as §1

[3] = compound: Nc1ncn([C@H]2C[C@H](O)[C@@H](CO)O2)c(=O)n1 [Decitabine] + C[C@]1(O)C[C@@H](c2nc(-c3ccc4ccc(-c5ccccc5)nc4c3)c3c(N)nccn32)C1 [Linsitinib] (partner 1 µM)
Method in brief: as §1

[4] = compound: O=C(C[C@H]1NCCC[C@@H]1O)Cn1cnc2cc(Br)c(Cl)cc2c1=O (racemic) [Halofuginone] + Nc1nc2[nH]cc(CCc3ccc(C(=O)N[C@@H](CCC(=O)O)C(=O)O)cc3)c2c(=O)[nH]1 [Pemetrexed] (partner 0.2 µM)
Method in brief: as §1

Row | Cell Line | relative viability ([1]; first compound 0.04 µM) | relative viability ([1]; first compound 0.1265 µM) | relative viability ([1]; first compound 0.4 µM) | relative viability ([1]; first compound 1.265 µM) | relative viability ([1]; first compound 4 µM) | relative viability ([2]; first compound 0.04 µM) | relative viability ([2]; first compound 0.1265 µM) | relative viability ([2]; first compound 0.4 µM) | relative viability ([2]; first compound 1.265 µM) | relative viability ([2]; first compound 4 µM) | relative viability ([3]; first compound 0.04 µM) | relative viability ([3]; first compound 0.1265 µM) | relative viability ([3]; first compound 0.4 µM) | relative viability ([3]; first compound 1.265 µM) | relative viability ([3]; first compound 4 µM) | relative viability ([4]; first compound 0.001 µM) | relative viability ([4]; first compound 0.003162 µM) | relative viability ([4]; first compound 0.01 µM) | relative viability ([4]; first compound 0.03162 µM) | relative viability ([4]; first compound 0.1 µM)
1 | NCI-H358 | 0.613 | 0.496 | 0.478 | 0.596 | 0.502 | 0.315 | 0.335 | 0.352 | 0.313 | 0.25 | 0.87 | 0.822 | 0.521 | 0.272 | 0.293 | 0.171 | 0.167 | 0.167 | 0.154 | 0.138
2 | NCI-H1792 |  | 0.922 | 0.554 | 0.658 | 0.838 | 0.303 | 0.243 | 0.34 | 0.235 | 0.197 | 0.643 | 0.568 | 0.531 | 0.378 | 0.333 | 0.922 | 0.813 | 0.53 | 0.891 | 0.391
3 | LU99A | 0.457 |  | 0.338 | 0.287 | 0.41 | 0.369 | 0.325 | 0.355 | 0.308 | 0.311 | 0.45 | 0.584 | 0.603 | 0.442 | 0.374 | 0.218 | 0.157 | 0.16 | 0.163 | 0.181
4 | H3255 | 0.889 | 0.811 | 0.924 | 0.824 | 0.886 | 0.189 | 0.462 | 0.342 | 0.331 | 0.358 | 0.488 | 0.88 | 0.551 | 0.554 | 0.468 | 0.585 | 0.587 | 0.565 | 0.57 | 0.567
5 | NCI-H1734 | 0.679 | 0.952 | 0.446 | 0.42 | 0.629 | 0.442 | 0.453 | 0.443 | 0.342 | 0.312 | 0.739 | 0.691 | 0.698 | 0.459 | 0.348 | 0.408 | 0.438 | 0.401 | 0.441 | 0.488
6 | NCI-H650 | 0.879 | 0.654 | 0.953 | 0.944 | 1.13 | 0.81 | 0.779 | 0.574 | 0.443 | 0.33 | 0.722 | 0.538 | 0.298 | 0.258 | 0.32 | 0.981 | 0.954 | 0.946 | 0.825 | 0.696
7 | NCI-H1915 | 0.657 | 0.8 | 0.715 | 0.709 | 0.719 | 0.814 | 0.662 | 0.387 | 0.295 | 0.304 | 0.586 | 0.396 | 0.353 | 0.286 | 0.276 | 0.499 | 0.546 | 0.513 | 0.392 | 0.465
8 | NCI-H1651 | 0.437 | 0.527 | 0.471 | 0.314 | 0.524 | 0.481 | 0.598 | 0.624 | 0.503 | 0.434 | 0.865 | 0.888 | 0.888 | 0.839 | 0.733 | 0.56 | 0.489 | 0.568 | 0.572 | 0.592
9 | HOP-62 | 0.612 | 0.397 | 0.263 | 0.446 | 0.712 | 0.668 | 0.585 | 0.239 | 0.159 | 0.162 | 0.617 | 0.307 | 0.159 | 0.138 | 1.05 | 0.326 | 0.293 | 0.333 | 0.306 | 0.295
10 | CAL-12T | 0.668 | 0.638 | 0.633 | 0.603 | 0.669 | 0.299 | 0.499 | 0.332 | 0.339 | 0.301 | 0.657 | 0.805 | 0.494 | 0.451 | 0.347 | 1.17 | 1.08 | 1.3 | 0.953 | 0.72
11 | LCLC-103H | 0.829 | 1.01 | 0.724 | 0.826 | 0.858 | 0.638 | 0.669 | 0.526 | 0.655 | 0.647 | 1.06 | 1.13 | 1.12 | 0.882 | 0.888 | 0.479 | 0.362 | 0.455 | 0.443 | 0.498
12 | NCI-H3122 | 1.05 |  | 0.95 | 0.969 | 1.07 | 0.64 | 0.564 | 0.399 | 0.571 | 0.517 | 1.01 | 1.01 | 0.941 | 0.788 | 0.711 | 0.207 | 0.191 | 0.205 | 0.189 | 0.198
13 | NCI-H1395 | 0.382 | 0.404 | 0.378 | 0.402 | 0.392 | 0.57 | 0.579 | 0.522 | 0.417 | 0.458 | 0.768 | 0.938 | 0.597 | 0.63 | 0.509 | 0.873 | 0.822 | 0.991 | 0.696 | 0.571
14 | PC-14 | 0.247 | 0.377 | 0.355 | 0.262 | 0.344 | 0.0668 | 0.749 | 0.348 | 0.28 | 0.11 |  | 0.784 | 0.268 | 0.283 | 0.23 | 0.153 | 0.148 | 0.143 | 0.163 | 0.164
15 | BEN | 0.772 | 0.587 | 0.649 | 0.517 | 0.696 | 0.545 | 0.543 | 0.396 | 0.349 | 0.324 | 0.994 | 0.809 | 0.671 | 0.46 | 0.43 | 0.871 | 0.618 | 0.788 | 0.647 | 0.551
16 | EPLC-272H | 0.2 |  | 0.272 | 0.175 | 0.259 | 0.277 | 0.303 |  | 0.271 | 0.321 | 0.811 | 0.939 |  | 0.596 | 0.548 | 0.42 | 0.359 | 0.308 | 0.345 | 0.358
